This series is described as follows: Effect and timing of food on pharmacokinetics of TAK-390 after a single oral dose of TAK-390MR 90 mg (phase 1, 4-way crossover). In kind it is in vivo, human. The conditions noted are these: oral 90 mg dose with a high fat meal. How it is done:
The purpose of this study was to evaluate the effect of food on the pharmacokinetics (PK) and pharmacodynamics (PD) of TAK-390 after a single oral dose of TAK-390 MR 90 mg, made as described in Example 1. This study was a phase 1, open-label, randomized, single-dose, 4-way crossover study conducted at a single center. Healthy adult subjects were randomized on Day 1 of Period 1 to 1 of 4 sequence groups that determined the order in which patients received the 4 different dosing regimens (See, Table 4, below). […] There was a minimum washout interval of at least 5 days between the last dose in a period and the first dose in the subsequent period. […] PK parameters for TAK-390 were estimated using standard noncompartmental methods and include: tlag=time delay between drug administration and first observed concentration above the lower limit of quantitation; tmax=time to reach the observed maximum plasma concentration; Cmax=observed maximum plasma concentration; and AUC=area under the plasma concentration vs time curve from time zero the last quantifiable concentration (AUCt) and from time zero to infinity (AUC∞).

For `Cc1c(OCC(F)(F)F)ccnc1C[S@@+]([O-])c1nc2ccccc2[nH]1` [dexlansoprazole], the “increase in AUC∞” value was “approximately 37%” and the “increase in Cmax” value is “approximately 37%”.
